Measured values published in US6548268B1, “Chromogenic medium for detecting Staphylococcus aureus” (priority 1999, dated 2003).

Legend:
Staphylococcus aureus [1] = conditions: chromogenic agent in culture medium
Excerpt: (§1) The term “chromogenic agent” is understood to denote a compound which changes color in the presence of a specific strain, in particular under the effect of the enzymatic system of said strain.

Streptococcus strains = conditions: chromogenic agent in culture medium; a large number of Streptococcus strains
Excerpt: as §1

Staphylococcus aureus [2] = assay: Growth inhibition in the culture medium; format: cell-based; conditions: deferoxamine in the culture medium
Excerpt: The concentration used will preferably be between 0.010 and 0.100 g/l.

Compound	Staining in the presence of S. aureus (Staphylococcus aureus [1])	Staining of Streptococcus strains (Streptococcus strains)	Inhibition of growth of Staphylococcus aureus (Staphylococcus aureus [2])
5-bromo-4-chloro-3-indoxyl glucuronide	negative	–	–
5-bromo-4-chloro-3-indoxyl galactoside	negative	–	–
5-bromo-4-chloro-3-indoxyl glucoside	without staining	stains blue	–
5-bromo-6-chloro-3-indoxyl phosphate	mauve staining	–	–
CC(=O)N(O)CCCCCNC(=O)CCC(=O)N(O)CCCCCNC(=O)CCC(=O)N(O)CCCCCN [deferoxamine]	–	–	without inhibiting
